A value given as a limit tells only on which side of the number the result lay.

The assay has as its target T1, recombinant human 15-PGDH (Homo sapiens, UniProt P15428).
T1 construct: purchased R&D Systems
T1 sequence (P15428 1-266): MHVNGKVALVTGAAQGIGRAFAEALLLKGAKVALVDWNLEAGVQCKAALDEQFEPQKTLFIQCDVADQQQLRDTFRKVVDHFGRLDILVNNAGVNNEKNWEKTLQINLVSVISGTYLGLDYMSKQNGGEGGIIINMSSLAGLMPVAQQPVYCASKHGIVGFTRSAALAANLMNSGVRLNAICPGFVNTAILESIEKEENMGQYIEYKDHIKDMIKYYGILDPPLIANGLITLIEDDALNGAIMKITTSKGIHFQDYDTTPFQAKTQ
The assay can be described thus: 15-PGDH enzyme inhibition test. It counts as biochemical. To be noted: 4 nM recombinant human 15-PGDH, 30 μM PGE2, 1 mM NAD+, 60 minutes after starting the reaction; read-out: IC50 Value. As to the method:
15-PGDH Enzyme Inhibition Test
A test compound and 4 nM recombinant human 15-PGDH (R&D Systems) were added, in 50 mM Tris-HCl (pH 8.0) containing 0.01% TWEEN 20 (Sigma) and 0.01% bovine gamma globulin (Sigma), to a 384-well Flat Bottom Black plate (Corning, 3820), and the resultant was allowed to stand still at room temperature for 12 minutes, and 30 μM PGE2 (Cayman Chemical) and 1 mM NAD+ (Sigma) were added thereto to start the reaction. 60 minutes after starting the reaction, measurement was performed using Synergy 2 (BioTeck) at an excitation wavelength of 340 nm and a fluorescence wavelength of 440 nm. Assuming that a fluorescence signal obtained with an assay buffer added instead of the test compound and NAD+ was 100% and that a signal obtained with NAD+ added was 0%, a concentration corresponding to 50% inhibition plotted on a concentration-reaction curve of the test compound was defined as an IC50 value. Incidentally, in the following tables, an IC50 value smaller than 10 nM was shown as +++, an IC50 value equal to or larger than 10 nM and smaller than 100 nM was shown as ++, and an IC50 value equal to or larger than 100 nM was shown as +.
As to `O=C(c1cnc2c(c1)CCCN2c1ccn2c(=O)[nH]nc2c1)N1CCC[C@H](CF)C1` [Example 1-145], the IC50 was less than 0.01 µM.

For the compound `O=C(c1ccc2c(c1)OCCN2c1ccccc1)N1CCCCC1` [Example 1-18], the IC50 is less than 0.01 µM.

`CCCN(C)C(=O)c1cnc2c(c1)OCCN2c1ccn2c(=O)n(C)nc2c1` [Example 17-1, N-Methyl-4-(2-methyl-3-oxo-2,3-dihydro-[1,2,4]triazolo[4,3-a]pyridin-7-yl)-N-propyl-3,4-dihydro-2H-pyrido[3,2-b][1,4]oxazine-7-carboxamide]: the half-inhibitory concentration (IC50) was less than 0.01 µM.

As for `O=C(O)c1ccc(N2CCOc3cc(C(=O)N4CCCC(F)(F)C4)cnc32)cc1` [Example 4-6], the concentration for half-maximal inhibition (IC50) is less than 0.01 µM.

On to `COCn1nc2cc(N3CCOc4cc(C(=O)N5CCC[C@H](C)C5)cnc43)ccn2c1=O` [Example 1-41], for which the IC50 is less than 0.01 µM.

Turning to `CCN1Cc2cc(N3CCCc4cc(C(=O)N5CCCCCC5)cnc43)ccc2C1=O` [Example 8-70], the IC50 is less than 0.01 µM.

As to `Cn1nc2cc(N3CCCc4cc(C(=O)N5CCCCC5)ccc43)ccn2c1=O` [Example 1-130], the 50% inhibitory concentration (IC50) was less than 0.01 µM.

On to `O=C(c1cnc2c(c1)OCCN2c1ccn2c(=O)n(Cc3ccnc(Cl)c3)nc2c1)N1CCC(F)(F)CC1` [Example 27-7], for which the 50% inhibitory concentration (IC50) was less than 0.01 µM.

On to `CC1CN(C(=O)c2cnc3c(c2)CCCN3c2ccn3c(=O)n(C)nc3c2)CCC1(F)F` (stereo not drawn) [Example 8-144], for which the IC50 is less than 0.01 µM.

As to `CNC(=O)c1ccc(N2CCCc3cc(C(=O)N4CCCCC4)cnc32)cc1F` [Example 1-59], the IC50 was less than 0.01 µM.

As for `O=C(c1cnc2c(c1)OCCN2c1ccc2cccnc2c1)N1CCCCC1` [Example 1-257], the 50% inhibitory concentration (IC50) was less than 0.01 µM.

Consider `O=C(c1cnc2c(c1)OCCN2c1ccc(Br)cc1)N1CCCCC1` [Example 1-243], for which the half-inhibitory concentration (IC50) lay in the range of 0.01 to 0.1 µM.

As for `Cn1nc2cc(N3CCCc4cc(C(=O)N5CCC[C@@H](C(F)F)C5)cnc43)ccn2c1=O` [Example 8-142], the IC50 is less than 0.01 µM.

`CC(=O)NC(C)(C)c1ccc(N2CCOc3cc(C(=O)N4CCCCC4)cnc32)cc1` [Example 31-1]: the half-inhibitory concentration (IC50) was greater than 0.1 µM.

For `Cn1nc2cc(N3CCCc4cc([S+]([O-])C5CCCCC5)cnc43)ccn2c1=O` (stereo not drawn) [Example 7-7], the 50% inhibitory concentration (IC50) was less than 0.01 µM.

For `COCn1nc2cc(N3CCOc4cc(C(=O)N5CCCCC5)cnc43)ccn2c1=O` [Example 1-22], the concentration for half-maximal inhibition (IC50) was less than 0.01 µM.

For `O=C(c1cnc2c(c1)OCCN2c1ccn2nnnc2c1)N1CCCCC1` [Example 1-104], the IC50 is less than 0.01 µM.

Consider `CCn1nc2cc(N3CCCc4cc(C(=O)N5CCCC[C@H]5C)cnc43)ccn2c1=O` [Example 8-157], for which the half-inhibitory concentration (IC50) fell in the range of 0.01 to 0.1 µM.

For the compound `CCC1CCCN(C(=O)c2cnc3c(c2)OCCN3c2ccn3c(=O)n(C)nc3c2)C1` (stereo not drawn) [Example 8-43], the half-maximal inhibitory concentration (IC50) is less than 0.01 µM.

`CN1Cc2cc(N3CCOc4cc(C(=O)N5CCC[C@H](CF)C5)cnc43)ccc2C1=O` [Example 8-204]: the half-maximal inhibitory concentration (IC50) is less than 0.01 µM.

On to `Cn1nc2cc(N3CCOc4cc(C(=O)N5CCC[C@H](F)C5)cnc43)ccn2c1=O` [Example 8-27], for which the half-inhibitory concentration (IC50) is less than 0.01 µM.

As to `COCCOCCn1nc2cc(N3CCCc4cc(C(=O)N5CCC[C@@H](CF)C5)cnc43)ccn2c1=O` [Example 1-125], the half-maximal inhibitory concentration (IC50) was less than 0.01 µM.

For the compound `CNC(=O)c1ccc(N2CCCc3cc(C(=O)N4CCCCC4)cnc32)cc1` [Example 1-204], the 50% inhibitory concentration (IC50) is less than 0.01 µM.

On to `CCOCCN1Cc2cc(N3CCOc4cc(C(=O)N5CCC(F)(F)CC5)cnc43)ccc2C1=O` [Example 1-50], for which the IC50 was less than 0.01 µM.

For `Cn1nc2cc(N3CCCc4cc(C(=O)N5CCCC5)cnc43)ccn2c1=O` [Example 8-123], the IC50 is less than 0.01 µM.

`Cn1nc2cc(N3CCOc4cc(C(O)C5CCCCC5)cnc43)ccn2c1=O` (stereo not drawn) [Example 19-1, 7-(7-(Cyclohexyl(hydroxy)methyl)-2,3-dihydro-4H-pyrido[3,2-b] [1,4]oxazin-4-yl)-2-methyl-[1,2,4]triazolo[4,3-a]pyridin-3 (2H)-one]: the half-inhibitory concentration (IC50) is less than 0.01 µM.

For `Cc1c(C(=O)N2CCCCC2)ccc2c1OCCN2c1ccc(C(=O)O)cc1` [Example 4-1, 4-(8-Methyl-7-(piperidine-1-carbonyl)-2,3-dihydro-4H-benzo[b][1,4]oxazin-4-yl)benzoic Acid], the half-maximal inhibitory concentration (IC50) was less than 0.01 µM.

For `CCCN1Cc2cc(N3CCOc4cc(C(=O)N5CCCCC5)cnc43)ccc2C1=O` [Example 1-222], the IC50 was less than 0.01 µM.

Turning to `O=C(c1cnc2c(c1)OCCN2c1ccn2c(=O)n(Cc3ccnc(Cl)c3)nc2c1)N1CCCCC1` [Example 27-2], the IC50 was less than 0.01 µM.

With `Cn1nc2cc(N3CCOc4cc(C(=O)N5CCCC(C)(F)C5)cnc43)ccn2c1=O` (single isomer, unassigned) [23-2 Isomer B], the half-inhibitory concentration (IC50) was less than 0.01 µM.

As for `CC(C)(C(=O)O)c1ccc(N2CCOc3cc(C(=O)N4CCCCC4)cnc32)cc1` [Example 2-37], the IC50 was greater than 0.1 µM.

Regarding `Cn1ncc2cc(N3CCCc4cc(C(=O)N5CCCCC5)cnc43)cnc2c1=O` [Example 1-194], the 50% inhibitory concentration (IC50) is less than 0.01 µM.

On to `C[C@H]1CCCN(C(=O)c2cnc3c(c2)CCCN3c2ccn3c(=O)n(C)nc3c2)C1` [Example 8-135], for which the 50% inhibitory concentration (IC50) is less than 0.01 µM.

Turning to `CCN1Cc2cc(N3CCCc4cc(C(=O)N5CCC[C@H](F)C5)cnc43)ccc2C1=O` [Example 8-84], the concentration for half-maximal inhibition (IC50) was less than 0.01 µM.

In the case of `COCCN1Cc2cc(N3CCOc4cc(C(=O)N5CCC(F)(F)CC5)cnc43)ncc2C1=O` [Example 1-266], the half-maximal inhibitory concentration (IC50) was in the range of 0.01 to 0.1 µM.

As to `C[C@H]1CCCCN1C(=O)c1cnc2c(c1)CCCN2c1ccn2c(=O)n(C)nc2c1` [Example 8-133], the IC50 was less than 0.01 µM.

On to `Cn1cnc2cc(N3CCOc4cc(C(=O)N5CCCCC5)cnc43)ccc2c1=O` [Example 1-163], for which the IC50 is less than 0.01 µM.

For `CCn1nc2cc(N3CCCc4cc(C(=O)N5CCC[C@@H](C)C5)cnc43)ccn2c1=O` [Example 8-159], the concentration for half-maximal inhibition (IC50) is less than 0.01 µM.

Take `COCn1nc2cc(N3CCCc4cc(C(=O)N5CCC(F)(F)C(C)C5)cnc43)ccn2c1=O` (stereo not drawn) [Example 8-117]: the concentration for half-maximal inhibition (IC50) was less than 0.01 µM.

Take `Cn1nc2cc(N3CC(F)(F)COc4cc(C(=O)N5CCCCC5)cnc43)ccn2c1=O` [Example 22-1, 7-(3,3-Difluoro-8-(piperidine-1-carbonyl)-3,4-dihydropyrido[3,2-b][1,4]oxazepin-5(2H)-yl)-2-methyl-[1,2,4]triazolo[4,3-a]pyridin-3 (2H)-one]: the IC50 lay in the range of 0.01 to 0.1 µM.

Regarding `Cn1nc2cc(N3CCOc4cc(C(=O)N5CCC(Cl)CC5)cnc43)ccn2c1=O` [Example 8-113], the IC50 was less than 0.01 µM.

Regarding `O=C(O)c1ccc(N2CCCCOc3cc(C(=O)N4CCCCC4)ccc32)cc1` [Example 2-6], the concentration for half-maximal inhibition (IC50) was less than 0.01 µM.

With `CCN1Cc2cc(N3CCCc4cc(C(=O)N5CCC[C@@H](C)C5)cnc43)ccc2C1=O` [Example 8-89], the half-inhibitory concentration (IC50) was less than 0.01 µM.

With `CCn1nc2cc(N3CCCc4cc(C(=O)N5CCN(C)CC5)cnc43)ccn2c1=O` [Example 8-152], the IC50 lay in the range of 0.01 to 0.1 µM.

In the case of `CCn1nc2cc(N3CCOc4cc(C(=O)N5CCCC5)cnc43)ccn2c1=O` [Example 8-19], the IC50 is less than 0.01 µM.

As to `Cn1nc2cc(N3CCN(c4ccc(C#N)cc4)c4cc(C(=O)N5CCC(F)(F)CC5)cnc43)ccn2c1=O` [Example 30-2], the IC50 fell in the range of 0.01 to 0.1 µM.

On to `CNC(=O)c1ccc(N2CCOc3cc(C(=O)N4CCCCC4)cnc32)cc1F` [Example 6-5], for which the concentration for half-maximal inhibition (IC50) was less than 0.01 µM.

On to `COCn1nc2cc(N3CCCc4cc(C(=O)N5CCC[C@H](CF)C5)cnc43)ccn2c1=O` [Example 1-114], for which the half-inhibitory concentration (IC50) is less than 0.01 µM.

Take `CNC(=O)c1ccc(N2CCOc3cc(C(=O)N4CCCCC4)cnc32)cc1` [Example 6-18]: the IC50 is less than 0.01 µM.

Regarding `CC(C)(C)OC(=O)c1ccc(N2CCOc3cc(C(=O)N4CCC[C@H](F)C4)cnc32)cc1` [Example 8-8], the IC50 was greater than 0.1 µM.

As for `CC(C)(O)c1ccc(N2CCOc3c2ccc(C(=O)N2CCCCC2)c3Cl)cc1` [Example 10-2], the IC50 was less than 0.01 µM.

On to `O=C(O)c1ccc(N2CCOc3cc(C(=O)N4CCC(F)(F)CC4)cnc32)cc1` [Example 4-5], for which the IC50 is less than 0.01 µM.

In the case of `Cn1ncc2cc(N3CCCc4cc(C(=O)N5CCCCC5)cnc43)ccc2c1=O` [Example 1-188], the IC50 is less than 0.01 µM.

For `CCn1nc2cc(N3CCCc4cc(C(=O)N5CCc6ccccc6C5)cnc43)ccn2c1=O` [Example 8-155], the half-inhibitory concentration (IC50) is less than 0.01 µM.

As for `C[C@@H]1CCCN(C(=O)c2cnc3c(c2)OCCN3c2ccc3c(c2)CN(C)C3=O)C1` [Example 8-197], the IC50 is less than 0.01 µM.

Consider `O=C(O)c1ccc(N2CCOc3cc(C(=O)N4CCC(F)(F)CC4)ccc32)cc1` [Example 2-35], for which the 50% inhibitory concentration (IC50) was less than 0.01 µM.

`CCN1Cc2cc(N3CCCc4cc(C(=O)N5Cc6ccccc6C5)cnc43)ccc2C1=O` [Example 8-77]: the concentration for half-maximal inhibition (IC50) is less than 0.01 µM.

By IC50 is commonly meant the concentration needed to halve the response being measured.

The record behind these values is patent US12577217B2, “15-PGDH inhibitor” (KYORIN Pharmaceutical Co., Ltd., priority 2019, dated 2026).
